In publication PMC2764797 (Neurochemistry international, 2009):

Target: GAT1 (Homo sapiens, UniProt P30531)
Type: cell-based

GAT1, sequence (P30531 whole entry): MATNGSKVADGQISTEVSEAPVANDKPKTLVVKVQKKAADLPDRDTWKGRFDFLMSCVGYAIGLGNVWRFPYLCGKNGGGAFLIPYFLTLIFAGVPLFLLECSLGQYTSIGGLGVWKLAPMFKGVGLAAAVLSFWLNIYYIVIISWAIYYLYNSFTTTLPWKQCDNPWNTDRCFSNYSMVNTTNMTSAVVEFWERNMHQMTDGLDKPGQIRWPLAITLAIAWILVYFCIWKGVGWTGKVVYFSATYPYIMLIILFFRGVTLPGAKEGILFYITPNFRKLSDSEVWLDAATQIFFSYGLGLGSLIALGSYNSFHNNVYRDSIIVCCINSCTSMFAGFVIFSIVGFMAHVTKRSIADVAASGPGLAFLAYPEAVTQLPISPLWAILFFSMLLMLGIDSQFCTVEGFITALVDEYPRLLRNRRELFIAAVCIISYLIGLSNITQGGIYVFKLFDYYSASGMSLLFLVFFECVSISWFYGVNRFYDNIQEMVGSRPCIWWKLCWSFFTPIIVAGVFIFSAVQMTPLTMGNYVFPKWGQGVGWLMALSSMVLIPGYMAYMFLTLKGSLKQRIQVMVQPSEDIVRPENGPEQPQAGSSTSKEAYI

O=C(O)C1=CCCN(CCON=C(c2ccccc2)c2ccccc2)C1 [NO-711, 1-[2-[[(diphenylmethylene)imino]oxy]ethyl]-1,2,5,6-tetrahydro-3-pyridinecarboxylic acid]
Ki: 78 ± 12 nM
